How the values were obtained:
[1] = Solubility (characteristics of the metabolite); type: physicochemical
Text: Formula I', which is formula I in which R₄ and R₅ are methoxy, R₆ is OH, -a-b- is cis- -CH=CH-, c is C=O, -d-e- is -CHOH-CHOH-, -f-g- is trans- -CH=CH- and the asymmetric carbon atoms marked * all have the S-configuration [drawing 2] is the structure which has been assigned to the novel metabolite designated 87-250904-F1 and having the following characteristics: White needles (from methanol/water 1:1), m.p. […] HPLC : Column : LiChrospher 100 RP-8 (5µm) (LiChroCART 125-4, Merck) Mobile phase: acetonitrile/water/orthophosphoric acid 350:650:0.175 (by vol.) Flow rate: 1.0 ml/min Detection: UV 210 nm Retention time: 3.8 min.

THP-1 cells = assay: Cytokine release from THP-1 cells (γ-interferon/LPS stimulated; ELISA, RIA, LDH, DNA); type: cell-based; details: Homo sapiens, γ-interferon, LPS, 40 hours, read-out: IC₅₀ value in the THP-1 test (concentration of compound which inhibits to 50 % the release of IL-1β)
Experimental: 1. Cytokine Release from THP-1 Cells
The THP-1 cell line is generally available and is described by Tsuchiya et al, Int. J. Cancer 26 171-176 (1980). 900 µl THP-1 cells (0.5 x 10⁶ cells) together with 100 U γ-interferon/0.9 ml RPMI 1640 medium (containing 2 mM L-glutamine and 5 % heat-inactivated foetal calf serum) are pipetted into 24 well culture plates. 100 µl of the compound to be tested are then added. After 3 hours at 37°C in 5 % CO2/95 % air, 10 µl lipopolysaccharide 500 µg/ml is added and the incubation continued for a further 40 hours. Appropriate controls (with and without stimulus, solvent) are also included. The media are then removed and clarified by centrifugation at 1000 g for 10 min. 1.0 ml digitonin 0.01 % is added to the wells to lyse the cells which are loosened by scraping with a rubber policeman and left at 4°C for 10 min. […] IL-1β, IL-6 and TNF-α assays are determined using commercially available ELISA kits (Cistron), PGE2 is measured using a standard RIA and DNA fluorimetrically using DAPI (4',6-diamidino-2-phenylindole.2HCl) […]
For the above uses the required dosage will of course vary depending on the mode of administration, the particular condition to be treated and the effect desired. […] It has been determined that the compound of Formula I' has an IC₅₀ value in the THP-1 test (concentration of compound which inhibits to 50 % the release of IL-1β) of 0.06 µM.

Solubility in methanol, DMSO, chloroform ([1]; methanol, DMSO, chloroform)	Solubility in water ([1]; water)	IC50 (THP-1 cells) [nM]	SMILES
readily soluble	Almost insoluble	–	COc1cc(O)c2c(c1OC)/C=C/C[C@H](O)[C@H](O)C(=O)/C=C\C[C@H](C)OC2=O [Formula I', [3S-(3R*, 5Z, 8R*, 9R*, 11E)]-3,4,9,10-tetrahydro-8,9,16-trihydroxy-13,14-dimethoxy-3-methyl-1H[2] benzoxacyclotetradecin-1,7[8H] dione]
–	–	60	COc1cc(O)c2c(c1OC)/C=C/C[C@H](O)[C@H](O)C(=O)/C=C\C[C@H](C)OC2=O [Formula I']
